Data as given in patent US20250346584A1, “NOVEL KAPPA OPIOID LIGANDS” (The Scripps Research Institute, priority 2012, published 2025).

Each compound was assayed against kappa opioid receptor (OPRK1) (Homo sapiens (Human), UniProt P41145) (assay: OPRK1 antagonist assay (b-arrestin-2-TEV / b-lactamase reporter cell line, EC80 U-50488 challenge)). Details: read-out: IC50 nM (% inhib if other than 50%); antagonist mode vs EC80 U-50488; NA = not active at concentrations up to 10 μM.
kappa opioid receptor (OPRK1), sequence (P41145 whole entry): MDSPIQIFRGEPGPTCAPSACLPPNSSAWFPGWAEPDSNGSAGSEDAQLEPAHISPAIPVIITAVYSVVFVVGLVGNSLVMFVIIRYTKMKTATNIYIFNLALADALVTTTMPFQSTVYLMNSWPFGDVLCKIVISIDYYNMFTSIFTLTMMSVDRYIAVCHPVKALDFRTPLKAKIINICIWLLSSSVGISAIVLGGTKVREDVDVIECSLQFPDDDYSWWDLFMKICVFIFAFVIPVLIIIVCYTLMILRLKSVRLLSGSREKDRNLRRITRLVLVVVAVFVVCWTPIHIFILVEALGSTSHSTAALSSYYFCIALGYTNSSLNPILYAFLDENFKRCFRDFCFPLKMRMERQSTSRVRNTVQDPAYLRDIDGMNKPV
Type: cell-based
COC(=O)c1cc(Br)cnc1N1CCC(NC2CCCC2)CC1 [compound 24] showed an IC50 of 120 nM.
In the case of COC(=O)c1cc(Br)cnc1N1CC2CN(C3CCCC3)CC2C1 (stereo not shown) [compound 50], the IC50 is reported as 1000 nM.
CO[C@H]1CN(c2nc3c(C)c(F)ccc3cc2-c2nc(C)no2)CC[C@H]1NC1CCCCC1 [compound 487] showed an IC50 of 15 nM.
CCc1noc(-c2cc(Br)cnc2N2CCC(NC3CCCCC3)CC2)n1 [compound 107] gave an IC50 of 11000 nM.
In the case of CCCC(C)NC1CCN(c2nc3ccc(C)cc3cc2-c2noc(C)n2)CC1 (stereo not shown) [compound 453], the IC50 is reported as 85 nM.
CCCC(=O)Nc1cnc(N2CCC(NC3CCCCC3)CC2)c(C(=O)OC)c1 [compound 95] showed an IC50 of 1.4 nM.
COC(=O)c1cc(Br)cnc1N1CCC(NC2CC3CCC2(C)C3(C)C)CC1 (stereo not shown) [compound 22] gave an IC50 of 10000 nM.
For Cc1ccc2nc(N3CCC(NC4CCCCC4C)CC3)c(-c3nc(C)no3)cc2c1 (stereo not shown) [compound 348], the IC50 was 1.3 nM.
With COC(=O)c1cccnc1N1CCC(NC2CCCCC2)C(CO)C1 (stereo not shown) [compound 149] the IC50 was 5400 nM.
Work on COC(=O)c1cc(I)cnc1N1CCC(NC2CCCCCC2)C(CO)C1 (stereo not shown) [compound 75] yielded an IC50 of 36 nM.
For CO[C@@H]1CN(c2nc3ccc(C)cc3cc2-c2nc(C)no2)CC[C@@H]1NC1CCOCC1 [compound 522], the IC50 was 67 nM.
Cc1ccc2nc(N3CCC(NC4CCCCC4)CC3)c(-c3ccc(C)o3)cc2c1 [compound 488] gave an IC50 of 19 nM.
Work on COC(=O)c1cc(Br)cnc1N1CCC(NC2CCCCC2)C(C)C1 (stereo not shown) [compound 45] yielded an IC50 of 164 nM.
In the case of Cc1noc(-c2nc3ccccc3nc2N2CCC(NC3CCCC3)C(CO)C2)n1 (stereo not shown) [compound 202], the IC50 is reported as 187 nM.
Work on CCC1CN(c2ncc(C)cc2-c2nc(C)no2)CCC1NC1CCCCC1 (stereo not shown) [compound 183] yielded an IC50 of 280 nM.
With Cc1ccc2nc(N3CCC(NCC4CC4)CC3)c(-c3noc(C)n3)cc2c1 [compound 434] the IC50 was 43 nM.
Work on COC(=O)c1cc(Br)cnc1N1CCC(NC2CCCCC2OC)C(O)C1 (stereo not shown) [compound 59] yielded an IC50 of 36 nM.
For COC(=O)c1cc(C)cnc1N1CCC(NC2CCCCC2)C(CO)C1 (stereo not shown) [compound 109], the IC50 was 198 nM.
Compound COC(=O)c1cc(I)cnc1N1CCC(NC2CCCCC2O)CC1 (stereo not shown) [compound 37] has an IC50 of 142 nM.
For CC(=O)c1cc(Br)cnc1N1CC[C@@H](NC2CCCCC2)[C@H](O)C1 [compound 127], the IC50 was 33 nM.
COC1CN(c2nc3c(cc2-c2nc(C)no2)CCC3)CCC1NC1CCCCC1 (stereo not shown) [compound 210] was tested, and the IC50 was 72 nM.
For CCOC(=O)/C=C/c1cnc(N2CCC(NC3CCCCC3)CC2)c(C(=O)OC)c1 [C59], the IC50 was greater than 20000 nM.
Cc1ccc2nc(N3CCC(NC4(C)CCOCC4)CC3)c(-c3nc(C)no3)cc2c1 [compound 271] was tested, and the IC50 was 419 nM.
Work on CCCC(C)NC1CCN(c2nc3ccc(C)cc3cc2-c2nc(C)no2)CC1 (stereo not shown) [compound 351] yielded an IC50 of 3 nM.
Cc1noc(-c2cc3ccccc3nc2N2CCC(CO)(NC3CCCCC3)CC2)n1 [compound 222] was tested, and the IC50 was 163 nM.
COC1CN(c2nc3ccccc3cc2-c2nc(C)no2)CCC1NC1CCCC1 (stereo not shown) [compound 308] gave an IC50 of 2.5 nM.
COC1CN(c2nc3ccc(C)cc3cc2-c2nc(C)no2)CCC1NC1CCCC1 (stereo not shown) [compound 309] showed an IC50 of 0.5 nM.
For Cc1noc(-c2cc3cc(Cl)ccc3nc2N2CCC(NC3CCCCC3)C(CO)C2)n1 (stereo not shown) [compound 239], the IC50 was 16 nM.
For Cc1noc(-c2cc(C)c(C)nc2N2CC[C@H](NC3CCCCC3)[C@@H](O)C2)n1 [compound 543], the IC50 was 32 nM.
Work on Cc1ccc2nc(N3CCC(NC4CCCCC4)CC3)c(-c3ccncn3)cc2c1 [compound 532] yielded an IC50 of 334 nM.
Compound Cc1noc(-c2cc3ccccc3nc2N2CCC(NC3CCCCC3)C(CO)C2)n1 (stereo not shown) [compound 186] has an IC50 of 5 nM.
Cc1ccc2nc(N3CCC(NC4CCOCC4)CC3)c(-c3noc(C)n3)cc2c1 [compound 332] gave an IC50 of 19 nM.
Cc1ccc2nc(N3CCC(NCC(C)O)CC3)c(-c3nc(C)no3)cc2c1 (stereo not shown) [compound 360] showed an IC50 of 8 nM.
Compound COC1CN(c2ncc(C)cc2-c2nc(C)no2)CCC1NC1CCCC1 (stereo not shown) [compound 316] has an IC50 of 23 nM.
In the case of Cc1nc(-c2cc3cc(F)ccc3nc2N2CCC(N[C@@H]3CCCC[C@H]3O)CC2)no1 [compound 475], the IC50 is reported as 101 nM.
With Cc1nc(-c2cc3cc(F)ccc3nc2N2CCC(NC3CCOCC3)CC2)no1 [compound 469] the IC50 was 440 nM.
COC1CN(c2nc3ccccc3cc2-c2ncccn2)CCC1NC1CCCCC1 (stereo not shown) [compound 263] was tested, and the IC50 was 1770 nM.
COC(=O)c1cc(Br)cnc1N1CCC(N(C)C2CCCCC2)C(O)C1 (stereo not shown) [compound 51] gave an IC50 of 3000 nM.
With Cc1nc(-c2cc3ccc(F)c(C)c3nc2N2CCC(NC3CCCCC3)CC2)no1 [compound 503] the IC50 was 74 nM.
With CO[C@H]1CN(c2nc3ccc(C)cc3cc2-c2nc(C)no2)CC[C@H]1NCC(C)C [compound 529] the IC50 was 369 nM.
With CCOC(=O)c1cc2cc(C)ccc2nc1N1CCC(NC2CCOCC2)CC1 [compound 289] the IC50 was 184 nM.
Work on COC(=O)c1cc(Br)cnc1N1CCC(NC2CCCCC2OC)CC1 (stereo not shown) [compound 26] yielded an IC50 of 267 nM.
For COC1CN(c2ncc(C)cc2-c2nc(C)no2)CCC1NC1CCCCCC1 (stereo not shown) [compound 318], the IC50 was 19 nM.
With CCc1ccc2nc(N3CCC(N[C@H](C)CC)CC3)c(-c3nc(C)no3)cc2c1 [compound 525] the IC50 was 17 nM.
Cc1nc(-c2cc3ccc(F)c(C)c3nc2N2CCC(N[C@H]3CCCC[C@@H]3O)CC2)no1 [compound 510] was tested, and the IC50 was 115 nM.
CCc1noc(-c2cc3cc(C)ccc3nc2N2CC[C@@H](NC3CCCCC3)[C@@H](OC)C2)n1 [compound 297] gave an IC50 of 2 nM.
In the case of Cc1ccc2nc(N3CCC(NC4CCOC4)CC3)c(-c3nc(C)no3)cc2c1 (stereo not shown) [compound 254], the IC50 is reported as 8 nM.
Compound Cc1noc(-c2cc3c(F)cccc3nc2N2CC[C@@H](NC3CCCCC3)[C@H](O)C2)n1 [compound 251] has an IC50 of 11 nM.
For CO[C@H]1CN(c2nc3cccc(F)c3cc2-c2nc(C)no2)CC[C@H]1NC1CCCCC1 [compound 520], the IC50 was 19 nM.
Compound Cc1ccc2nc(N3CCC(NC4CCCOC4)CC3)c(-c3nc(C)no3)cc2c1 (stereo not shown) [compound 247] has an IC50 of 4 nM.
COC(=O)c1cccnc1N1CCC(NC2CCCCC2)C(O)C1 (stereo not shown) [compound 57] gave an IC50 of 2200 nM.
Cc1cc(-c2nc(C3CC3)no2)c(N2CCC(NCC(C)C)CC2)nn1 [compound 509] was tested, and the IC50 was 30 nM.
With OCC1CN(c2nc3ccccc3cc2-c2ncco2)CCC1NC1CCCCC1 (stereo not shown) [compound 226] the IC50 was 107 nM.
Cc1nc(-c2cc3cc(C)c(F)cc3nc2N2CCC(N[C@H]3CCCC[C@@H]3O)CC2)no1 [compound 506] showed an IC50 of 48 nM.
With CCN(CC)C(=O)c1cc(Br)cnc1N1CC[C@@H](NC2CCCCC2)[C@H](O)C1 [compound 139] the IC50 was 4800 nM.
With Cc1noc(-c2cc(Br)cnc2N2CC[C@@H](NC3CCCCC3)[C@H](O)C2)n1 [compound 136] the IC50 was 49 nM.
Work on COC1CN(c2nc3c(cc2-c2nc(C)no2)CCCC3)CCC1NC1CCCCC1 (stereo not shown) [compound 193] yielded an IC50 of 729 nM.
For Cc1cnc(N2CC[C@@H](NC3CCCCC3)[C@H](O)C2)c(-c2ncco2)c1 [compound 169], the IC50 was 2500 nM.
In the case of Cc1ccc2nc(N3CCC(NC4CCCCC4)C3)c(-c3nc(C)no3)cc2c1 (stereo not shown) [compound 461], the IC50 is reported as 52 nM.
Work on Cc1noc(-c2cc3ccccc3nc2N2CCC(NC3CCCCC3C)C(CO)C2)n1 (stereo not shown) [compound 206] yielded an IC50 of 33 nM.
Work on COC(=O)c1cc(Br)cnc1N1C2CCC1CC(NC1CCCCC1)C2 (stereo not shown) [compound 15] yielded an IC50 of 7700 nM.
Cc1noc(-c2cc3ccccc3nc2N2CCC(NC3CCCCCC3)C(CO)C2)n1 (stereo not shown) [compound 200] was tested, and the IC50 was 14 nM.
Work on CCOC(=O)c1cc(Cl)cnc1N1CCC(NC2CCCCC2)C(CO)C1 (stereo not shown) [compound 71] yielded an IC50 of 93 nM.
Work on Cc1noc(-c2cc(C)c(C)nc2N2CCC(NC3CCCCC3C)C(CO)C2)n1 (stereo not shown) [compound 224] yielded an IC50 of 17 nM.
For Cc1noc(-c2cc3c(nc2N2CCC(NC4CCCCC4)C(CO)C2)CCC3)n1 (stereo not shown) [compound 211], the IC50 was 74 nM.
Cc1nc(-c2cc3cc(F)ccc3nc2N2CCC(N[C@H]3CCC[C@@H]3O)CC2)no1 [compound 474] gave an IC50 of 1900 nM.
In the case of CO[C@H]1CN(c2ncc(C)cc2C(=O)OC(C)C)CC[C@H]1NC1CCCCC1 [compound 356], the IC50 is reported as 12.5 nM.
In the case of CO[C@H]1CN(c2nc3ccc(C)cc3cc2-c2nc(C)no2)CC[C@H]1NC1CCOCC1 [compound 500], the IC50 is reported as 423 nM.
Compound COC(=O)c1cc(Br)cnc1N1CCC(NC2CCCCCCC2)CC1 [compound 21] has an IC50 of 317 nM.
With COC1CN(c2nc3ccc(C)cc3cc2-c2nc(C)no2)CCC1NC1CCOCC1 (stereo not shown) [compound 326] the IC50 was 1.9 nM.
For COC(=O)c1cc(C)cnc1N1CCC(NC2CCCCC2)C(O)C1 (stereo not shown) [compound 110], the IC50 was 108 nM.
With Cc1ccc2nc(N3CCC(N4CCCCC4)CC3)c(-c3nc(C)no3)cc2c1 [compound 266] the IC50 was 1740 nM.
With CNC(=O)c1cc(Br)cnc1N1CCC(NC2CCCCC2)CC1 [compound 87] the IC50 was 19000 nM.
With CCOC(=O)c1cc2cc(C)ccc2nc1N1CCC(NC2CCCCC2)C(OC)C1 (stereo not shown) [compound 281] the IC50 was 30 nM.
Work on COC(=O)c1cc(NC(C)=O)cnc1N1CCC(NC2CCCCC2)CC1 [compound 86] yielded an IC50 of 628 nM.
Cc1cnc(N2CCC(NC3CCCCC3)C(CO)C2)c(-c2ncco2)c1 (stereo not shown) [compound 217] showed an IC50 of 361 nM.
CCOC(=O)c1cc(Br)cnc1N1CCC(NC2CCCCC2)C(OC)C1 (stereo not shown) [compound 146] showed an IC50 of 85 nM.
Compound Cc1nc(-c2cc3cc(F)ccc3nc2N2CCC(NC3CCCC3)CC2)no1 [compound 468] has an IC50 of 175 nM.
With Cc1ccc2nc(N3CCC(NCC(C)(C)O)CC3)c(-c3nc(C)no3)cc2c1 [compound 402] the IC50 was 16 nM.
With Cc1ccc2cc(-c3nc(C)no3)c(N3CCC(NC4CCOCC4)CC3)nc2c1 [compound 257] the IC50 was 930 nM.
Cc1noc(-c2cc3ccc(F)c(C)c3nc2N2CCC(NC3CCCCC3)CC2)n1 [compound 491] showed an IC50 of 33 nM.
For CCOC(=O)c1cc(Br)cnc1N1CCC(NC2CCCCC2)CC1 [compound 38], the IC50 was 128 nM.
In the case of Cc1ccc2nc(N3CCC(NC4CCCC(O)C4)CC3)c(-c3nc(C)no3)cc2c1 (stereo not shown) [compound 255], the IC50 is reported as 10 nM.
Compound O[C@@H]1CN(c2ncc(Br)cc2-c2nc(C3CC3)no2)CC[C@H]1NC1CCCCC1 [compound 150] has an IC50 of 9100 nM.
CO[C@@H]1CN(c2nc3ccccc3cc2-c2cnc(C)cn2)CC[C@@H]1NC1CCCCC1 [compound 471] gave an IC50 of 170 nM.
